Reference: patent publication US9084794B2, “Fatty acid synthase inhibitors” (GlaxoSmithKline Intellectual Property (No. 2) Limited, priority 2011, dated 2015)

Target: FAS (Homo sapiens, UniProt P49327)
Assay: FAS activity inhibition (Assay #1 residual NADPH/resazurin or Assay #2 CoA/CPM thio-reactive dye)
Format: biochemical
Details: measured through one of the two assays, at least one experiment or the average of multiple experiments
Procedure: FAS activity was measured through one of the two following assays.
Inhibition of FAS activity can be measured based on the detection of residual NADPH substrate after the FAS assay is quenched. This assay is run as a 10 μL endpoint assay in 384-well format, where the reaction contains 20 μM malonyl-CoA, 2 μM acetyl-CoA, 30 μM NADPH and 40 nM FAS in 50 mM sodium phosphate, pH 7.0. The assay is run by sequentially dispensing 5 μl of a malonyl-CoA solution, then enzyme solution Containing the acetyl-CoA, and NADPH) into a black, low volume assay plate (Greiner 784076) pre-dispensed with 100 nL compound solutions in DMSO. The reaction is incubated at ambient temperature for 60 minutes, then quenched with 5 μL, of a developing solution composed of 90 μM resazurin, 0.3 IU/ml diaphorase in 50 mM sodium phosphate, pH 7.0. The developed reaction is read on a Molecular Devices Analyst or Acquest (or equivalent) plate reader using a 530 nm excitation wavelength filter, a 580 nm emission filter, and 561 nm dichroic filter. The test compounds are prepared in neat DMSO at a concentration of 10 mM. For inhibition curves, compounds are diluted using a three fold serial dilution and tested at 11 concentrations (e.g. 25 μM-0.42 nM). Curves are analysed using ActivityBase and XLfit, and results are expressed as pIC50 values.
Inhibition of FAS can also be quantified based on the detection of the CoA products with a thio-reactive coumarin dye. This assay is run as a […] assay in 384-well format, where the reaction contains 20 μM malonyl-CoA, 20 μM acetyl-CoA, 40 μM NADPH and 2 nM FAS in 50 mM sodium phosphate, pH 7.0, and 0.04% Tween-20. The assay is run by adding […] enzyme solution to a black, low volume assay plate (Greiner 784076) pre-dispensed with 100 nl compound solutions in DMSO. After 30 minutes, 5 μL substrate is added, and the reaction incubated at ambient temperature for an additional 60 minutes. The reaction is then quenched with 100 μL of 6M guanidine-HCl containing 50 μM CPM (7-diethylamino-3-(4′-maleimidylphenyl)-4-methylcoumarin CPM; thio-reactive dye), and incubated for 30 minutes. The plate is read on an Envision (PerkinElmer) or equivalent plate reader using a 380 nm excitation wavelength filter, and a 486 nm emission filter. Data fitting and compound preparations are done as described above.

Chain of FAS (P49327 whole entry): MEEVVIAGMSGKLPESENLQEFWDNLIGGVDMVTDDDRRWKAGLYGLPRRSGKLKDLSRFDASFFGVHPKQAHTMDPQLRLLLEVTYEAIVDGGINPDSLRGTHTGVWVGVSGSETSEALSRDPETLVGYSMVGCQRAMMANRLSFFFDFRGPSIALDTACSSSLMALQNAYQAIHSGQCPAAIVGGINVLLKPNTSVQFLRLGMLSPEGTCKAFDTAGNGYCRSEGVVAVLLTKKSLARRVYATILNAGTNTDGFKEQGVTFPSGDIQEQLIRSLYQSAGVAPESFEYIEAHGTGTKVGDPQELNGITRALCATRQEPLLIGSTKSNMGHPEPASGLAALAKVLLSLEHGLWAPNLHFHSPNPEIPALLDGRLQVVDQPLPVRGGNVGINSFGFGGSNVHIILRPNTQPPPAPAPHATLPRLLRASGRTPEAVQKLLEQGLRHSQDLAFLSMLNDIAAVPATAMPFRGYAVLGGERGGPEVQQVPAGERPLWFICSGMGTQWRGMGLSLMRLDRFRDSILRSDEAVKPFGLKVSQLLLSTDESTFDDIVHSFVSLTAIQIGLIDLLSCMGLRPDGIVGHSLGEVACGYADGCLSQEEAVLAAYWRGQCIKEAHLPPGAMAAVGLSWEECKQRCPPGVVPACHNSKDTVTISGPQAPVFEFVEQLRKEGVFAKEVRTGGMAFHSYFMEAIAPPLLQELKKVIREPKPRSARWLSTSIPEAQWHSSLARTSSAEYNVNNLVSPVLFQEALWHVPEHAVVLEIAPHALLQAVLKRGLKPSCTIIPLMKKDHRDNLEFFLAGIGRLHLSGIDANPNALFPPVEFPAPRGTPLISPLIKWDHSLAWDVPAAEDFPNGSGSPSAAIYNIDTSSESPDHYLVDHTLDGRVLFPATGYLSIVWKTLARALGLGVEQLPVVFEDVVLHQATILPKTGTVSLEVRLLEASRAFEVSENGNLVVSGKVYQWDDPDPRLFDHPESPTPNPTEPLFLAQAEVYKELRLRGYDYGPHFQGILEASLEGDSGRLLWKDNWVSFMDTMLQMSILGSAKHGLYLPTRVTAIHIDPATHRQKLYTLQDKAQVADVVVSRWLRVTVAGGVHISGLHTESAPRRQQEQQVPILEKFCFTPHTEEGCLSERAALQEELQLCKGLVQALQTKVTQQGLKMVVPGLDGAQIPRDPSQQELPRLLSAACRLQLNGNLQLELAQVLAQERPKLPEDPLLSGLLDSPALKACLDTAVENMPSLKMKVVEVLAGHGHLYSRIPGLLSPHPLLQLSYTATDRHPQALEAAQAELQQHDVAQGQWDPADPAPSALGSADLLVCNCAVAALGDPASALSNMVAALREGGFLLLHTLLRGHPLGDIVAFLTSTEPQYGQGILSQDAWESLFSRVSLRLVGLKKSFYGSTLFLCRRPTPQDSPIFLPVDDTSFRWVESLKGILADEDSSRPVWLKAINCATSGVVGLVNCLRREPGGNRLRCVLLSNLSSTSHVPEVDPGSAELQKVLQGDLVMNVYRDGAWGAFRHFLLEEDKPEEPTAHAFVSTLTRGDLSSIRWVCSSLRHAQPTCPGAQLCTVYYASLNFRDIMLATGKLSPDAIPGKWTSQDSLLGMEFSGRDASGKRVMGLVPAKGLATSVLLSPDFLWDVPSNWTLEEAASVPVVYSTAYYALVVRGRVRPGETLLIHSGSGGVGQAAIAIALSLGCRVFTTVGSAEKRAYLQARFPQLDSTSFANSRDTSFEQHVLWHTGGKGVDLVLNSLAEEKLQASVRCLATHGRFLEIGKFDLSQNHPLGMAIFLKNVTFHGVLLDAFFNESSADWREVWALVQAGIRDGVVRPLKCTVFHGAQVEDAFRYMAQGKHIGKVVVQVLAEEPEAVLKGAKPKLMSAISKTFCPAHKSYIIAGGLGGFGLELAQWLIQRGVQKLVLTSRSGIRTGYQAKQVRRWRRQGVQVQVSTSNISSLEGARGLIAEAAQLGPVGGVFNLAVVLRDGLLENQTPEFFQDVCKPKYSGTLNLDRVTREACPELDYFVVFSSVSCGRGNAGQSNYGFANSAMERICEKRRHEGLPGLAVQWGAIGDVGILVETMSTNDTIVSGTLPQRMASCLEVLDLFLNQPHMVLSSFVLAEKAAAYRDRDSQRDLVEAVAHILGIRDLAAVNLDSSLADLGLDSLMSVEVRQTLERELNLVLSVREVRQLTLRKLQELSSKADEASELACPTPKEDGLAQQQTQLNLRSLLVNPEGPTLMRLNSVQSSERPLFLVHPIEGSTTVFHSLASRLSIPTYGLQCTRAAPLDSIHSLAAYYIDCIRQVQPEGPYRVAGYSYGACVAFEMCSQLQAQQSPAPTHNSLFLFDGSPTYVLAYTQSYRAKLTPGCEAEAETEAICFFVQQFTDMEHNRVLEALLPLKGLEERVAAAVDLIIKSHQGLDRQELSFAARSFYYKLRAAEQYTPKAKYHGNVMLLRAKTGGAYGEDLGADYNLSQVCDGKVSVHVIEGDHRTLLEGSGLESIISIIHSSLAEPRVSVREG

SMILES	IC50 [nM]
O=C1COC2(CCN(C(CO)c3ccc(-c4ccc5cccnc5c4)cc3)CC2)CN1C1CC1 (racemic) [Example 22, 4-cyclopropyl-9-(2-hydroxy-1-(4-(quinolin-7-yl)phenyl)ethyl)-1-oxa-4,9-diazaspiro[5.5]undecan-3-one]	20
COc1ccc(-c2ccc(C(C(N)=O)N3CCC4(CC3)CN(C3CC3)C(=O)CO4)c(F)c2)cc1 (centres unmarked) [Example 33, 2-(4-cyclopropyl-3-oxo-1-oxa-4,9-diazaspiro[5.5]undecan-9-yl)-2-(3-fluoro-4′-methoxy-[1,1′-biphenyl]-4-yl)acetamide]	200
CC(c1ccc(-c2ccc3cccnc3c2)cc1)N1CCC2(CC1)CN(C1CC1)C(=O)CO2 (centres unmarked) [Example 13, 4-cyclopropyl-9-(1-(4-(quinolin-7-yl)phenyl)ethyl)-1-oxa-4,9-diazaspiro[5.5]undecan-3-one]	50
O=C(O)CC(c1ccc(-c2ccc3cccnc3c2)cc1)N1CCC2(CC1)CN(C1CC1)C(=O)CO2 (centres unmarked) [Example 6, 3-(4-cyclopropyl-3-oxo-1-oxa-4,9-diazaspiro[5.5]undecan-9-yl)-3-(4-(quinolin-7-yl)phenyl)propanoic acid]	501

The next molecules have a lower IC50 than those just listed; values first:

IC50 [nM]	SMILES
4	COc1c(-c2ccc(C(C(N)=O)N3CCC4(CC3)CN(C3CC3)C(=O)CO4)c(F)c2)ccc2cccnc12 (single isomer, unassigned; (-)) [Example 78, (−)-2-(4-cyclopropyl-3-oxo-1-oxa-4,9-diazaspiro[5.5]undecan-9-yl)-2-(2-fluoro-4-(8-methoxyquinolin-7-yl)phenyl)acetamide]
3	NC(=O)C(c1ccc(-c2ccc3cccnc3c2)cc1F)N1CCC2(CC1)CN(C1(CO)CC1)C(=O)CO2 (single isomer, unassigned; (-)) [Example 30, (−)-2-(2-fluoro-4-(quinolin-7-yl)phenyl)-2-(4-(1-(hydroxymethyl)cyclopropyl)-3-oxo-1-oxa-4,9-diazaspiro[5.5]undecan-9-yl)acetamide]
3	NC(=O)C(c1ccc(-c2ccc3cccnc3c2)cc1F)N1CCC2(CC1)CN(C1CC1)C(=O)CO2 (single isomer, unassigned; (+)) [Example 9, (+)-2-(4-cyclopropyl-3-oxo-1-oxa-4,9-diazaspiro[5.5]undec-9-yl)-2-[2-fluoro-4-(7-quinolinyl)phenyl]acetamide]
1	NC(=O)C(c1c(F)cc(-c2ccc3cccnc3c2)cc1F)N1CCC2(CC1)CN(C1CC1)C(=O)CO2 (single isomer, unassigned; (+)) [Example 73, (+)-2-(4-cyclopropyl-3-oxo-1-oxa-4,9-diazaspiro[5.5]undecan-9-yl)-2-(2,6-difluoro-4-(quinolin-7-yl)phenyl)acetamide]
